In patent US10426778B2, “Prophylactic agent and/or therapeutic agent for diffuse large B-cell lymphoma” (ONO PHARMACEUTICAL CO., LTD., priority 2014, dated 2019):

Test system: ABC-DLBCL patients
Test: Open label multicenter non-randomized clinical trial of the present compound as monotherapy in recurrent or refractory ABC-DLBCL patients
Type: in vivo, human
Protocol: A clinical trial was conducted by an open label multicenter non-randomized test by administering 6-amino-9-[(3R)-1-(2-butynoyl)-3-pyrrolidinyl]-7-(4-phenoxyphenyl)-7,9-dihydro-8H-purin-8-one hydrochloride, the present compound, as monotherapy to an ABC-DLBCL patient.
Among the patients who had already received treatment, who had been diagnosed as a non-Hodgkin's lymphoma, for whom higher preference order of treatment was not present, and who fell under the following definition of “recurrent” or “refractory”, patients satisfying the following conditions entered.
Recurrent: Patients who attained Complete Response (CR), Complete Response, unconfirmed (CRu), CR with incomplete marrow recovery (CRi) or Partial Response (PR) for 6 months or longer after the last treatment of non-Hodgkin's lymphoma, and for whom pathological advance was recognized.
Refractory: Patients who could not attain CR, CRu, CRi or PR after the last treatment of non-Hodgkin's lymphoma, or patients who acquired CR, CRu, CRi or PR for shorter than 6 months after the last treatment, but for whom pathological advance was recognized.
Condition: Two or more NHL treatments have already failed.
A fixed dose of the present compound was orally administered once per day, with one cycle being treatment for 28 days in 3 patients per one cohort. The schedule was such that this cycle was conducted until 6 cycles, and could be maximally extended to 24 cycles. In the first cohort, all the patients were administered at a fixed dose of 20 mg of the present compound.
Regarding the NHL patients who entered under the above conditions, an immunohistochemical method or gene expression profiling was conducted according to a conventional method using a diagnostic sample obtained by tissue biopsy excising a part of affected lymph node, so that patients affected with ABC-DLBCL were extracted.
Primary evaluation items were safety, tolerance and dose limiting toxicities (DLTs). These items were evaluated using manifestation of adverse event, physical examination, clinical test, vital sign and cardiograph. In addition, the intensity of the adverse event was determined using Common Terminology Criteria for Adverse Events (CTCAE) version 4.0 of the National Cancer Institute.
Secondary evaluation items were Overall Response Rate (ORR), Complete Response Rate (CR, CRu, CRi), Partial Response Rate (PR), Progression Free Survival (PFS), Overall Survival (OS), Duration of Response, Event Free Survival (EFS), Pharmacokinetics (PK) and Pharmacodynamics (PD). In addition, the evaluations of CR, CRu and PR were conducted by referring to evaluation criteria described in Journal of Clinical Oncology, Vol. 17, No. 4, pages 1244-1253, 1999.
Biopsy samples of tumor were obtained from ABC-DLBCL patients before administration of the present compound. From the samples, genomic DNA was extracted by conventional method, and the presence or absence of CD79B mutation was confirmed in accordance with the method described in Nature, No. 463, pages 88-92, 2010. As a result, it was seen that, among the 8 ABC-DLBCL patients, all of 7 evaluable patients had CD79B wild-type gene background.

[1] = in 8 cases, cohort 4 (160 mg) or cohort 5 (520 mg)

CC#CC(=O)N1CC[C@@H](n2c(=O)n(-c3ccc(Oc4ccccc4)cc3)c3c(N)ncnc32)C1.Cl [present compound, 6-amino-9-[(3R)-1-(2-butynoyl)-3-pyrrolidinyl]-7-(4-phenoxyphenyl)-7,9-dihydro-8H-purin-8-one hydrochloride]
Overall Response Rate (ORR) in ABC-DLBCL patients having CD79B wild-type (6 cases in 7 cases): 85%
bleeding-associated event such as intracranial bleeding as adverse event (13 ABC-DLBCL patients): not seen at all
tolerance (13 ABC-DLBCL patients administered the present compound): high tolerance
Overall Response Rate (ORR) (ABC-DLBCL patients, 8 cases, cohort 4 (160 mg) or cohort 5 (520 mg), oral once per day): 75%
adverse events classified into grade 3 (drug reaction and lymphopenia) (among the 5 cases with adverse event of 13 cases, CTCAE version 4.0): 2 cases
PR cases [1]: 6 cases
disease progression cases [1]: 2 cases
median value of decrease in lymph node (in the 6 PR cases, cohort 4 (160 mg) or cohort 5 (520 mg)): 81.5%
decrease in lymph node swelling recognized (of 8 ABC-DLBCL patients, first administration cycle, oral once per day): 6 patients
adverse event associated with the present compound (of 13 cases): 5 cases
